# Source: patent US6808936B1, “Methods and compositions for use in the diagnosis and treatment of chronic immune disease” (R.E.D. Laboratories, N.V., priority 2000, dated 2004)
# Tests used:
# Assay in all cases: Caspase activity in extracts of U937 cell line induced to apoptosis with camptothecin
# Type in all cases: cell-based, human
# caspase 2 = conditions: U937 Cell Line Induced (G3), camptothecin 10 micrograms per mL; n 4; uninduced 50 ± 32
# Experimental: (§1) Caspase levels in PBMC extracts were measured using a commercially available kit (BioSource International) based on a calorimetric assay. Briefly, PBMC extracts were diluted to a final concentration of 1 microgram of protein per 50 microliters of diluent (provided with the kit). This sample (1 microgram) was then added to 55 microliters of assay buffer containing a substrate specific for the particular caspase to be measured (if caspase activity is present, the substrate is cleaved, liberating color). Cell extracts to be used as positive and negative controls for caspase activity levels were prepared using the method of […] et al. (1999), Oncogene 14:1007-1012). Briefly, the human monocytic leukemia cell line U937 was induced to begin apoptosis by treatment with camptothecin at a concentration of 10 micrograms per mL of 2×10^6 cells. Uninduced cells were used as the negative control. Also included as a negative control were normal human monocytes, elutriated and frozen as live cells. All cell extracts and protein determinations were made as described above. The reaction mixture (1 microgram protein sample+caspase substrate) was incubated at 37 degrees C. for 20-24 hours. The resultant color was measured using a spectrophotometer at a wavelength of 405 nm. Background absorbance (i.e., from a reagent blank without protein) was subtracted from all sample values. All assays were performed in triplicate, […]
# caspase 3 = test system: caspase 3
# Experimental: as §1
# caspase 8 = conditions: U937 Cell Line Induced (G3), camptothecin 10 micrograms per mL; n 4; uninduced 91 ± 11
# Experimental: as §1
# caspase 9 = conditions: U937 Cell Line Induced (G3), camptothecin 10 micrograms per mL; n 4; uninduced 45 ± 6
# Experimental: as §1
# caspase 6 = conditions: U937 Cell Line Induced (G3), camptothecin 10 micrograms per mL; n 4; uninduced 162 ± 20
# Experimental: as §1
smiles,measurement,setting,value
CC[C@@]1(O)C(=O)OCc2c1cc1n(c2=O)Cc2cc3ccccc3nc2-1 [camptothecin],C2 caspase activity,caspase 2,251 ± 39
same,Caspase 3 Activity,"caspase 3; Table 2: U937 Cell Line Induced (G3), camptothecin, mean ± s.d. of triplicates, uninduced 82 ± 9",336 ± 6 mAU
same,C3 caspase activity,"caspase 3; U937 Cell Line Induced (G3), camptothecin 10 micrograms per mL, n 4, uninduced 73 ± 26",304 ± 50
same,C8 caspase activity,caspase 8,207 ± 52
same,C9 caspase activity,caspase 9,90 ± 29
same,C6 caspase activity,caspase 6,277 ± 57
